Results reported in patent publication US20230236172A1, “T Cells That Respond To Patient Neoepitopes” (NantCell, Inc., priority 2020, published 2023).

Tested on: T cells generated with E. coli expressed polytope
Assay: ELISPOT with in vitro translated epitope peptides on the polytope-generated T cell line (FIG. 10)
Format: cell-based, human
Method: An exemplary synthetic DNA template for creating neoepitope peptides in vitro is depicted below, and the corresponding sequences are shown in SEQ ID NO:18, SEQ ID NO:19, SEQ ID NO:20, and SEQ ID NO:21 respectively.
One template strand oligo per epitope plus sense strand universal promoter oligo was used. […] Rather the reaction required simply adding annealed oligos to expression mix, and the mixture was allowed to react for 2 hours.

Row | Sequence | Recognition of epitope by T cells in the T cell line
1 | FMRPHERNGFTVLCPKNMIIKPGKI [E6] | recognized by T cells
2 | WQAGILARNLVPMVATVQGQNLKYQ (IVT&T peptide9) | recognized by T cells
